Experimental data taken from publication PMC3083694, “Effects of Intermediates between Vitamins K2 and K3 on Mammalian DNA Polymerase Inhibition and Anti-Inflammatory Activity” (International Journal of Molecular Sciences, 2011).

Experiments:
Human DNA polymerase γ [1] = target: T1, Human DNA polymerase γ (Homo sapiens, UniProt P54098); design: method as in PMID 18312466, PMID 18698499, PMID 20030669, PMID 20881898; conditions: earlier work of the authors; cited from earlier work
T1 construct: made in house
T1 sequence (P54098 1-1239): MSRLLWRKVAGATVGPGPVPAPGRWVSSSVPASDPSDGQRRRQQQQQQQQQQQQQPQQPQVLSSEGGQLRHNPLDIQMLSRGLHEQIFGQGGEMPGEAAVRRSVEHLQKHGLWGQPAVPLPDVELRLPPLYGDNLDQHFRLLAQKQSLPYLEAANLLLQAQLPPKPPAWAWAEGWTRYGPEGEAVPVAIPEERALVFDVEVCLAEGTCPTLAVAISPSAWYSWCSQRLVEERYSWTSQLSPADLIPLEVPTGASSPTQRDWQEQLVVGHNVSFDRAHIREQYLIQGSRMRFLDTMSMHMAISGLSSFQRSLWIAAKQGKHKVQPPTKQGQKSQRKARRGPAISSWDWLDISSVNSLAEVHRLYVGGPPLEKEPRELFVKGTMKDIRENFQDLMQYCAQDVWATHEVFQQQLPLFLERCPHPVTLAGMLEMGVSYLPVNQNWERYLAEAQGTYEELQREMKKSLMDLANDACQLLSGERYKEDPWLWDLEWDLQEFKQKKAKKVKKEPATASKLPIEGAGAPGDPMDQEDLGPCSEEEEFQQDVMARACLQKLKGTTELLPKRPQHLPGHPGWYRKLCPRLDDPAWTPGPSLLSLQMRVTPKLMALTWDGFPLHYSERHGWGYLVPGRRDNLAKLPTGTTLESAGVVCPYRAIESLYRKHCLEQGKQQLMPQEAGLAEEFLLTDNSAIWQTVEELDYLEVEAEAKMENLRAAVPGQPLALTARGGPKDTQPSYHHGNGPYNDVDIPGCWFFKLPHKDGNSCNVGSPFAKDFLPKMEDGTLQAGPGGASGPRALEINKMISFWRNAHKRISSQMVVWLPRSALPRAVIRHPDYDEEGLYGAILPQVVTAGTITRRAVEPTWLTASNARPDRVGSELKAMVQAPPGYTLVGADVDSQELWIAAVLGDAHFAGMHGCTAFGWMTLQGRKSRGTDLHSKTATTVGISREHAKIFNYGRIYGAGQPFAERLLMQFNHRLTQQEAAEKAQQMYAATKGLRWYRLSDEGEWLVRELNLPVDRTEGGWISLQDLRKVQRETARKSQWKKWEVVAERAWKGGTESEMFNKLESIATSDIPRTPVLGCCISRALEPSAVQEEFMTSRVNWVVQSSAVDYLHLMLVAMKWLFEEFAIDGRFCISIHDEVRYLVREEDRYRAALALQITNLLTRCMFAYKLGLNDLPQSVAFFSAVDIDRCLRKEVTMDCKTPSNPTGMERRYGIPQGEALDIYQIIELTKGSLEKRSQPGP

Human DNA polymerase γ [2] = target: T1, Human DNA polymerase γ; test: DNA polymerase activity assay, human pol γ; assay type: biochemical; conditions: 50 μM of each compound; Figure 2
Protocol: Pols from mammals, a fish (cherry salmon), an insect (fruit fly) and a plant (cauliflower) were purified, and prokaryotic pols and other DNA metabolic enzymes, such as T7 RNA polymerase, T4 polynucleotide kinase and bovine deoxyribonuclease I, were purchased as described in our previous report. The activities of all pols and other DNA metabolic enzymes were measured as described in previous reports.
The components of the pol assay were poly(dA)/oligo(dT)18 and dTTP as the DNA template-primer and 2′-deoxyribonucleoside 5′-triphosphate (dNTP) substrate, respectively. VK2, VK3, and their synthesized derivatives (i.e., MK-3, MK-2 and MK-1) were dissolved in dimethyl sulfoxide (DMSO) at various concentrations and sonicated for 30 s. The sonicated samples (4 μL) were mixed with 16 μL of each pol enzyme (final amount, 0.05 units) in 50 mM Tris-HCl (pH 7.5) containing 1 mM dithiothreitol, 50% glycerol and 0.1 mM EDTA, and kept at 0 °C for 10 min. These inhibitor–enzyme mixtures (8 μL) were added to 16 μL of each standard enzyme reaction mixture (50 mM Tris-HCl [pH 7.5], 1 mM dithiothreitol, 1 mM MgCl2, 15% glycerol, 10 μM poly(dA)/oligo(dT)18 and 10 μM [^3H]-dTTP), and incubation was carried out at 37 °C for 60 min, except for Taq pol, which was incubated at 74 °C for 60 min. Activity without the inhibitor was considered to be 100%, and the activity remaining at each concentration of inhibitor was determined relative to this value. One unit of pol activity was defined as the amount of enzyme that catalyzed the incorporation of 1 nmol dNTP (dTTP) into the synthetic DNA template-primer (poly(dA)/oligo(dT)18, A/T = 2/1) in 60 min at 37 °C under normal reaction conditions for each enzyme (scintillation counts: approximately 1 pmol of incorporated radioactive nucleotides = 100 cpm).

[3] = tested on: TPA-induced edema on mouse ear; test: TPA-induced mouse ear inflammatory test; assay type: in vivo; conditions: 250 or 500 μg applied to ear 30 min before TPA (0.5 μg); edema evaluated after 7 h; Figure 3
Protocol: All animal studies were performed according to the guidelines outlined in the “Care and Use of Laboratory Animals” of Kobe University. The animals were anesthetized with pentobarbital before undergoing cervical dislocation. Female 8-week-old C57BL/6 mice that had been bred in-house with free access to food and water were used for all experiments. All of the mice were maintained under a 12-h light/dark cycle and housed at a room temperature of 25 °C.
The mouse inflammatory test was performed according to Gschwendt’s method. In brief, an acetone solution of the VK2 and VK3 intermediates (250 or 500 μg in 20 μL) or 20 μL of acetone as a vehicle control was applied to the inner part of the mouse ear. Thirty minutes after the test compound was applied, a TPA solution (0.5 μg/20 μL of acetone) was applied to the same part of the ear. To the other ear of the same mouse, methanol, followed by TPA solution, was applied as a control. After 7 h, a disk (6 mm diameter) was obtained from the ear and weighed. The inhibitory effect (IE) is presented as a ratio of the increase in weight of the ear disks: IE=[(TPA only)−(tested compound plus TPA)]/[(TPA only)−(vehicle)]×100

[4] = tested on: LPS-induced production of TNF-α in RAW264.7 cells; test: LPS-induced TNF-α production in mouse macrophages (ELISA); assay type: cell-based; conditions: 10 and 50 μM tested, concentration not specified, Figure 4
Protocol: A mouse macrophage cell line, RAW264.7, was obtained from American Type Culture Collection (ATCC) (Manassas, VA, U.S.). The cells were cultured in Eagle’s Minimum Essential Medium (MEM) supplemented with 4.5 g of glucose per liter plus 10% fetal calf serum, 5 mM L-glutamine, 50 units/mL penicillin and 50 units/mL streptomycin. The cells were cultured at 37 °C in standard medium in a humidified atmosphere of 5% CO2–95% air.
RAW264.7 cells were placed in a 12-well plate at 5 × 10^4 cells/well and incubated for 24 h. The cells were pretreated with the VK2 and VK3 intermediates (final concentrations of 10 and 50 μM) for 30 min before the addition of 100 ng/mL of LPS. After stimulation with LPS for 24 h, the cell culture medium was collected to measure the amount of TNF-α secreted. The concentration of TNF-α in the culture medium was quantified by using a commercially available enzyme-linked immunosorbent assay (ELISA) development system (Bay Bioscience Co., Ltd., Kobe, Japan) in accordance with the manufacturer’s protocol.

Human DNA polymerase λ = target: T2, Human DNA polymerase λ (Homo sapiens, UniProt Q9UGP5); design: method as in PMID 19502749, PMID 14599551; conditions: reported previously; cited from earlier work
T2 construct: made in house
T2 sequence (Q9UGP5 1-575): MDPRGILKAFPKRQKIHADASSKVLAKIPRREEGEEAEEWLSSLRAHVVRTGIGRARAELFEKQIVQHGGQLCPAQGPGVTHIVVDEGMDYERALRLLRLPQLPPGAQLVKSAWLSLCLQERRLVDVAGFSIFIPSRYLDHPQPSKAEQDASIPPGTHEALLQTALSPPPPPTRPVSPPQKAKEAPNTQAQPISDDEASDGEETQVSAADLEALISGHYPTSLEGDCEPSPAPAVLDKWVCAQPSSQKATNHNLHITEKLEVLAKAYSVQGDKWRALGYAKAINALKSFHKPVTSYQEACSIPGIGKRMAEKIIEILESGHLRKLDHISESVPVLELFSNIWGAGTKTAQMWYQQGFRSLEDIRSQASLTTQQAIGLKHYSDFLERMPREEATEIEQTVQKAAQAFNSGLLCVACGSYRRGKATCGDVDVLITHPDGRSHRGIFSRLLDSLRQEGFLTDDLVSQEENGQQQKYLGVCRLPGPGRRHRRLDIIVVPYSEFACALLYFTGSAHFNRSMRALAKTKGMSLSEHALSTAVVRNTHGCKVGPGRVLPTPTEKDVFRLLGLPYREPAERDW

Row | SMILES | Inhibitor of human pol γ (Human DNA polymerase γ [1]) | Inhibitory effect on human pol γ activity (Human DNA polymerase γ [2]) | Anti-inflammatory activity toward TPA-induced edema on mouse ear [3] | Inhibitory effect on LPS-stimulated TNF-α production [4] | Inhibitor of pol λ (selectivity) (Human DNA polymerase λ)
1 | CC1=C(C/C=C(\C)CCC[C@H](C)CCC[C@H](C)CCCC(C)C)C(=O)c2ccccc2C1=O [VK1, phylloquinone] | not | – | – | – | –
2 | CC1=CC(=O)c2ccccc2C1=O [VK3, menadione, reference compound] | potent and specific inhibitor | selectively inhibited pol γ | weak effect | moderate inhibitory effect | –
3 | COc1cc(/C=C/C(=O)CC(=O)/C=C/c2ccc(O)c(OC)c2)ccc1O [curcumin] | – | – | – | – | pol-λ-specific inhibitor
